Assays:
[1] = Corrosion wheel test, sweet (50-50 3% NaCl brine - Mentor, saturated CO2 only), Tables III, VI, VII; conditions: for corrosion protection / performance (in words): CO2 only corrosive environment; for % Protection @ 2 ppm / % Protection @ 8 ppm / % Protection @ 128 ppm / % Protection @ 4 ppm / % Protection @ 32 ppm: 160° F., 24 hours, saturated CO2 only
[2] = Corrosion wheel test, sweet-sour, all water system (3% NaCl brine, saturated CO2 + 100 ppm H2S), Table I; conditions: 160° F., 24 hours, 3% NaCl brine only
Experimental: (§1) Twelve quaternary ammonium salts according to the present invention, were tested under four standard sets of corrosion wheel test conditions. These include a sweet-sour test in an all water system under a range of concentrations from 4-256 ppm (TABLE I). Tests 2 and 3 were run under sweet (TABLE III), and sour conditions (TABLE II) at low (4 ppm) and high (256 ppm) concentrations only. A film persistency test (TABLE IV) was also run for completeness of the screening sequence; however, it was not expected that these water soluble compounds would perform well under these test conditions. Due to the low solubility of some C18 derivatives, 20% activity was adopted as a standard, with the C18 compounds being submitted at 10% activity and added at double concentration to the test fluids. […] Compounds are generally water and low brine soluble, hydrocarbon dispersible with some C18 derivatives being soluble in both fresh water and hydrocarbon.
Blank weight loss: 40 ± 0.9 mg
(§2) Fluids: 3% NaCl brine only
(§3) Saturated CO2 + 100 ppm H2 S
(§4) Duplicates w/ triplicate blanks

[3] = Corrosion wheel test, sour (3% NaCl brine, saturated N2 + 500 ppm H2S), Table II; conditions: 160° F., 24 hours, 3% NaCl brine only
Experimental: as §1
Blank weight loss: 55.8 ± 1.0 mg
as §2
Saturated N2 + 500 ppm H2 S
Duplicates and triplicate blanks

[4] = Corrosion wheel test, sweet (50-50 3% NaCl brine - Mentor, saturated CO2 only), Tables III, VI, VII; conditions: Table III, 160° F., 24 hours
Experimental: Twelve quaternary ammonium salts according to the present invention, were tested under four standard sets of corrosion wheel test conditions. These include a sweet-sour test in an all water system under a range of concentrations from 4-256 ppm (TABLE I). Tests 2 and 3 were run under sweet (TABLE III), and sour conditions (TABLE II) at low (4 ppm) and high (256 ppm) concentrations only.
(§5) Fluids: 50-50 3% NaCl brine - Mentor
as §4
Fluids: 50-50 - 3% NaCl brine - Mentor

[5] = Film persistent corrosion wheel test (50-50 3% NaCl brine - Mentor, saturated CO2 + 100 ppm H2S), Table IV; conditions: 160° F., film 1 hr, rinse 1 hr, run 24 hrs, single data points
Experimental: as §1
Blank weight loss: 58.3 ± 3.3 mg
Film 1 hr, Rinse 1 hr, Run 24 hrs.
as §5, §3
Single data points with triplicate blanks

[6] = Inhibitor solubility test, Table V; type: physicochemical; conditions: 20% active inhibitor added at 0.5% by volume; observed initially and after 24 hours
[7] = Table VII, thiol addition comparison

SMILES	% Protection @ 2 ppm [1, 7] [%]	% Protection @ 8 ppm [1, 7] [%]	% Protection @ 128 ppm [1, 7] [%]	% Protection @ 4 ppm [2] [%]	% Protection @ 8 ppm [2] [%]	% Protection @ 16 ppm [2] [%]	% Protection @ 256 ppm [2] [%]	% Protection @ 4 ppm [3] [%]	% Protection @ 256 ppm [3] [%]	% Protection @ 4 ppm [4] [%]	% Protection @ 256 ppm [4] [%]	% Protection @ 10,000 ppm [5] [%]	Solubility in 5% NaCl brine [6]	Solubility in aromatic naphtha [6]	Solubility in distilled water [6]	Solubility in kerosene [6]	% Protection @ 2 ppm ([1]; Table VI confirmatory test) [%]	% Protection @ 4 ppm ([1]; Table VI confirmatory test) [%]	% Protection @ 8 ppm ([1]; Table VI confirmatory test) [%]	% Protection @ 32 ppm ([1]; Table VI confirmatory test) [%]	also measured
CCCCCCCCCC[N+](C)(C)C [C10 H21 NMe3 I, reference compound]	0	4	3																		corrosion protection / performance (in words) ([1]; Table VII): too short an alkyl chain length to function effectively as a corrosion inhibitor
CCCCCCCCCCCCS [C12 H25 SH, dodecane thiol, reference compound]	4	7	0																		corrosion protection / performance (in words) ([1]; Table VII): neither did dodecene thiol alone give any corrosion protection
CCCCCCCCCCCC[N+](C)(C)CCS [Compound 2]	23	72	84	35	44	67	77	23	79	56	81	64	disp	disp	sol	disp	13	42	69	82	% Protection @ 128 ppm ([1]; Table VI confirmatory test): 80%
CCCCCCCCCCCCCCCCCC[N+](C)(C)CCS [Compound 3]				31	41	58	60	11	83	62	92	53	disp	sol	sol	sol	18	18	76	79	% Protection @ 128 ppm ([1]; Table VI confirmatory test): 81%
CCCCCCCC[N+](C)(C)CCCS [Compound 4]	62	86	85	32	55	66	76	3	81	83	86	14	disp	disp	sol	disp	41	63	82	80	% Protection @ 128 ppm ([1]; Table VI confirmatory test): 78%
CCCCCCCCCCCC[N+](C)(C)CCCS [Compound 5]				30	59	67	76	17	77	82	85	25	sol	disp	sol	disp	45	63	79	80	% Protection @ 128 ppm ([1]; Table VI confirmatory test): 78%
CCCCCCCCSCC[N+](C)(C)C [Compound 7]				15	17	11	31	7	72	29	65	11	sol	disp	sol	disp					
CCCCCCCCCCCCCCCCCCSCC[N+](C)(C)C [Compound 9]				26	33	52	66	6	75	38	84	17	insol	disp	disp	disp					
CCCCCCCCCCCCSCCC[N+](C)(C)C [Compound 11]				21	27	35	79	15	80	60	84	20	sol	disp	sol	disp					
CCCCCCCCCCCCCCCCCCSCCC[N+](C)(C)C [Compound 12]				49	56	57	69	14	81	50	83	14	insol	sol	sol	disp					
